Experimental data taken from patent US11767520B2, “Compositions and methods for treating lung inflammation” (aTyr Pharma, Inc., priority 2017, dated 2023).

Key:
[1] = test system: bleomycin-induced respiratory impairment; assay: Respiratory measurements by whole body plethysmography, BLM rat model, combination study (Example 3, Table E6); format: in vivo, rat (male Sprague Dawley); parameters: Tidal Volume: unit not given here; conditions: for Expiratory Time / Inspiratory Time / Peak Expiratory Flow / Peak Inspiratory Flow / Tidal Volume / Respiratory Rate / Respiratory Minute Volume: mean; for Respiratory Rate: in breaths/min (unit assumed); for Respiratory Minute Volume: in mL/min (unit assumed)
Procedure: (§1) PBS or BLM was administered under isoflurane anesthesia. Excess rats were induced with BLM and used to replace any animals with excessive body weight loss.
(§2) All treatments commenced on Day 9.
(§3) In-life, body weights were measured and clinical observations were conducted daily. On Days 8, 15 and 21, animals were removed from their home cages and placed individually into whole body plethysmography chambers. After a 20-minute acclimatization phase, respiratory parameters were recorded for 10 minutes. Pre-study and on Days 10 and Day 17, whole blood was obtained from the tail vein and processed to serum for measurement of HRS^FC1.

[2] = Body weight, BLM rat model, combination study (Example 3); format: in vivo, rat (male Sprague Dawley); conditions: BLM-induced rats; Nintedanib, Pirfenidone or Test Article (HRS^FC1 3 mg/kg IV weekly), alone or in combination, from Day 9
Procedure: as §1, §2, §3

[3] = test system: bleomycin-induced lung fibrosis; assay: Histological fibrosis (modified Ashcroft) score, BLM rat model, combination study (Example 3); format: in vivo, rat (male Sprague Dawley); conditions: BLM-induced rats; alone or in combination, vs PO plus IV vehicles; data not shown
Procedure: (§4) The five lung lobes were collected and weighed. On Day 17, the right accessory lobe was retained and desiccated to obtain dry weight. The remaining right lung lobes were inflated and fixed in 10% neutral buffered formalin and embedded in paraffin for histological analysis. An approximately 50 mg piece of the left lung lobe was snap frozen and stored at −80° C. for potential RNA analysis. The remainder of the lobe was also snap frozen until analyzed for collagen content.
(§5) Sections for histology were stained using picrosirius red and were scored in a blinded fashion (1 score for each of the 3-4 lobes) by a veterinary pathologist using a modified Ashcroft score (Hubner et al., 2008). Hydroxyproline content was determined in the left lung lobe using a mass spectrometry method.
(§6) Slides were read by a veterinary pathologist and each of the 3 lobes evaluated was assigned 4 score types [Ashcroft for fibrosis (scores range from 0 to 8), perivascular/peribronchiolar inflammatory cell infiltrate (scores range from 0 to 5), interstitial/alveolar inflammatory cell infiltrate (scores range from 0 to 5), type II pneumocyte hyperplasia (scores range from 0 to 5)].

[4] = test system: bleomycin-induced lung inflammation; assay: Interstitial/alveolar inflammatory cell infiltrate score, BLM rat model, combination study (Example 3); format: in vivo, rat (male Sprague Dawley); conditions: BLM-induced rats; alone or in combination, vs PO plus IV vehicles; data not shown
Procedure: as §4, §5, §6

[5] = Body weight, BLM mouse model (Example 1); format: in vivo, mouse (male C57Bl/6J); conditions: BLM-induced mice; daily PO from Day 0: dexamethasone 0.25 mg/kg, Nintedanib 60 mg/kg
Procedure: (§7) Lung inflammation and fibrosis were induced in male C57Bl/6J mice by oropharyngeal administration of BLM. After the habituation phase mice were randomized based on body weight over the different groups. Under isoflurane anesthesia, 50 μl PBS or BLM was dripped onto the vocal cords facilitating aspiration. Mice were sacrificed at day 21 using a terminal bleed under isoflurane anesthesia.
(§8) Daily oral treatments commenced on Day 0, while daily IV treatments commenced on Day 8. Dosing was planned to continue until the day of termination (Day 21), however, due to high mortality in IV treated groups (see results), IV dosing was skipped on Day 19 and Day 20. […] Subsequently, the mice received 8% D20 (Kinemed, Emeryville) drinking water until sacrifice to maintain labeling of newly formed collagen. Body weight was monitored three times a week.

[6] = test system: bleomycin-induced lung fibrosis; assay: Survival, BLM-induced lung fibrosis mouse model (Example 1, Table E2); format: in vivo, mouse (male C57Bl/6J); conditions: for Survival (number of animals surviving to study day): Dex. 0.25 mg/kg PO, BLM mice, 12 at start
Procedure: as §7, §8
The study commenced with 7 animals in the non-diseased control group and 12 animals in the BLM-induced groups. Survival is show in Table E2 below.

[7] = test system: bleomycin-induced lung fibrosis; assay: Histological fibrosis (modified Ashcroft) score, BLM mouse model (Example 1); format: in vivo, mouse (male C57Bl/6J); conditions: BLM-induced mice; dexamethasone 0.25 mg/kg/dose from day of BLM instillation; Summary value, significant
Procedure: (§9) The five lung lobes were collected and isolated. Wet weight of the medial and accessory lung lobes was recorded. The lobes were then snap frozen and stored at <−70° C. until use for hydroxyproline analysis. The left lung lobe was inflated and fixed for 48 hours in 4% formaldehyde and embedded in paraffin for histological analysis. The cranial lung lobe was snap frozen and stored at −80° C. until shipment to Kinemed for the determination of new collagen formation.
Sections of the left lung lobe were stained using Masson's Trichrome and were scored in a blinded fashion using a modified Ashcroft score (Hubner et al., BioTechniques. 44:507-511, 514-507, 2008). Hydroxyproline content was determined in the medial and accessory lung lobes using acid hydrolysis followed by a chromogenic assay (QuickZyme Biosciences, Leiden, Netherlands). Newly formed collagen was measured in the cranial lung lobe by Kinemed Inc., Emeryville, USA using the fraction of body water enriched in 2H for normalization.

[8] = test system: bleomycin-induced lung fibrosis; assay: Lung wet and dry weight, BLM mouse model (Example 1); format: in vivo, mouse (male C57Bl/6J); conditions: BLM-induced mice; dexamethasone 0.25 mg/kg PO daily from Day 0
Procedure: as §7, §8, §9

[9] = Serum HRS^FC1 levels by sandwich ELISA, BLM rat model (Example 3); format: in vivo, rat (male Sprague Dawley); conditions: for Serum levels of HRS^FC1 ~24 hours post dose, vs HRS^FC1 plus oral vehicle: FIG. 6; for Amount of HRS^FC1 in serum 24 hours after IV injection: second confirmatory study, identical methods, data not shown
Procedure: as §2, §3
Serum samples from animals treated with HRS^FC1 were used to determine levels of the protein in systemic circulation using standard sandwich ELISA techniques with antibodies that capture the HRS moiety and detect the Fc portion of the fusion protein.
All statistical analyses were performed using GraphPad Prism (GraphPad Software, San Diego, Calif.). Groups were compared using the one-way ANOVA test (histology, lung weights, collagen content) or two-way repeated measures ANOVA test (pharmacokinetics), followed, when appropriate by a post-hoc Dunnett test.

[10] = Day 8 (prior to any treatments), Pirf. PO + Vehicle IV group

## Cc1ccc(=O)n(-c2ccccc2)c1 [Pirf.]
[1]; [10]
  Expiratory Time: 0.153 s
  Inspiratory Time: 0.114 s
  Peak Expiratory Flow: 19.5
  Peak Inspiratory Flow: 17.5
  Tidal Volume: 1.24
  Respiratory Rate: 247.6
  Respiratory Minute Volume: 314.8
[1]; Day 15, Pirf. PO + Vehicle IV
  Expiratory Time: 0.193 s
  Inspiratory Time: 0.135 s
  Peak Expiratory Flow: 15.0
  Peak Inspiratory Flow: 15.6
  Tidal Volume: 1.23
  Respiratory Rate: 206.2
  Respiratory Minute Volume: 260.2
[1]; Day 21, Pirf. PO + Vehicle IV
  Expiratory Time: 0.234 s
  Inspiratory Time: 0.148 s
  Peak Expiratory Flow: 13.0
  Peak Inspiratory Flow: 15.8
  Tidal Volume: 1.43
  Respiratory Rate: 186.5
  Respiratory Minute Volume: 259.6

## Cc1ccc(=O)n(-c2ccccc2)c1 [Pirfenidone, pirfenidone]
[2]
  Body weight curves vs respective controls: None of the groups treated with Nintedanib, Pirfenidone or Test Article alone or in combination had body weight curves that significantly differed
[3]
  Interstitial inflammatory cell infiltrate (as printed in the Ashcroft score paragraph): no significant effect
[1]; BLM-induced rats, Day 15 and Day 21, Nintedanib, Pirfenidone or Test Article (HRS^FC1)
  BLM-induced alterations in respiratory parameters: did not significantly impact
[4]
  Interstitial inflammatory cell infiltrate: no significant effect

## C[C@@H]1C[C@H]2[C@@H]3CCC4=CC(=O)C=C[C@]4(C)[C@@]3(F)[C@@H](O)C[C@]2(C)[C@@]1(O)C(=O)CO [dexamethasone]
[5]
  Body weight, of initial body weights: around 90%
[6]; BLM-induced mice to Day 21, daily PO from Day 0: dexamethasone 0.25 mg/kg, Nintedanib 60 mg/kg
  Survival rate: 75%
[6]; Day 11
  Survival (number of animals surviving to study day): 12
[6]; Day 12
  Survival (number of animals surviving to study day): 12
[6]; Day 13
  Survival (number of animals surviving to study day): 11
[6]; Day 14
  Survival (number of animals surviving to study day): 10
[6]; Day 15
  Survival (number of animals surviving to study day): 10
[6]; Day 16
  Survival (number of animals surviving to study day): 10
[6]; Day 17
  Survival (number of animals surviving to study day): 10
[6]; Day 18
  Survival (number of animals surviving to study day): 9
[6]; Day 19
  Survival (number of animals surviving to study day): 9
[6]; Day 20
  Survival (number of animals surviving to study day): 9
[6]; Day 21
  Survival (number of animals surviving to study day): 9
[7]
  Improvement of Ashcroft fibrosis score: 11.3%
[8]
  Decrease of lung wet weight compared to PO vehicle group: 15.6%

## HRS^FC1: Test Article of Examples 2 and 3; HRS-Fc fusion protein Fc-HRS(2-60)
[9]; BLM-induced rats, 3 mg/kg IV on Days 9 and 16
  Serum levels of HRS^FC1, change between Days 17 and 22: decreased
[9]; BLM-induced rats, 3 mg/kg IV on Days 9 and 16, Days 10, 17 and 22
  Serum levels of HRS^FC1: detectable
[9]; BLM-induced rats, concomitant oral Nintedanib 60 mg/kg once daily
  Serum levels of HRS^FC1 ~24 hours post dose, vs HRS^FC1 plus oral vehicle: significantly increased
[9]; BLM-induced rats, concomitant oral Pirfenidone 70 mg/kg per dose three times daily
  Serum levels of HRS^FC1 ~24 hours post dose, vs HRS^FC1 plus oral vehicle: significantly increased
[9]; concomitant Nintedanib
  Amount of HRS^FC1 in serum 24 hours after IV injection: increased
[9]; concomitant Pirfenidone
  Amount of HRS^FC1 in serum 24 hours after IV injection: increased
